Measurements taken from ChEMBL document CHEMBL1938346, “Structure-activity studies of diazabicyclo[3.3.0]octane-substituted pyrazines and pyridines as potent α4β2 nicotinic acetylcholine receptor ligands” (J Med Chem, 2011).

How the values were obtained:
[1] = target: Neuronal acetylcholine receptor; alpha4/beta2 (Rattus norvegicus, UniProt P09483+P12390); assay: Displacement of [3H]cytisine from nAChR alpha4beta2 in rat brain membrane; assay type: cell membranes
[2] = Agonist activity at nAChR alpha3beta4* expressed in human IMR32 cells assessed as calcium flux by FLIPR assay; assay type: functional, cell-based
[3] = Agonist activity at nAChR alpha3beta4* expressed in human IMR32 cells assessed as calcium flux by FLIPR assay relative to nicotine; assay type: functional; details: IMR-32
[4] = Drug uptake in rat brain at 2 umol/kg, ip measured after 0.75 hrs; assay type: ADME, organism-based; details: read-out: Drug uptake
[5] = Drug uptake in rat plasma at 2 umol/kg, ip measured after 0.75 hrs; assay type: ADME, organism-based
[6] = Ratio drug uptake in brain to plasma of rat at 2 umol/kg, ip measured after 0.75 hrs; assay type: ADME, organism-based; details: read-out: BPR
[7] = Half life in rat at 2 umol/kg, iv measured after 8 hrs; assay type: ADME, organism-based; details: in vivo
[8] = Half life in rat at 2 umol/kg, ip measured after 8 hrs; assay type: ADME, organism-based; details: in vivo
[9] = Half life in rat at 2 umol/kg, po measured after 8 hrs; assay type: ADME, organism-based; details: in vivo
[10] = Bioavailability in rat at 2 umol/kg, ip; assay type: ADME, organism-based; details: in vivo
[11] = Oral bioavailability in rat at 2 umol/kg; assay type: ADME, organism-based; details: in vivo

Chain of Neuronal acetylcholine receptor; alpha4/beta2 (P09483 whole entry): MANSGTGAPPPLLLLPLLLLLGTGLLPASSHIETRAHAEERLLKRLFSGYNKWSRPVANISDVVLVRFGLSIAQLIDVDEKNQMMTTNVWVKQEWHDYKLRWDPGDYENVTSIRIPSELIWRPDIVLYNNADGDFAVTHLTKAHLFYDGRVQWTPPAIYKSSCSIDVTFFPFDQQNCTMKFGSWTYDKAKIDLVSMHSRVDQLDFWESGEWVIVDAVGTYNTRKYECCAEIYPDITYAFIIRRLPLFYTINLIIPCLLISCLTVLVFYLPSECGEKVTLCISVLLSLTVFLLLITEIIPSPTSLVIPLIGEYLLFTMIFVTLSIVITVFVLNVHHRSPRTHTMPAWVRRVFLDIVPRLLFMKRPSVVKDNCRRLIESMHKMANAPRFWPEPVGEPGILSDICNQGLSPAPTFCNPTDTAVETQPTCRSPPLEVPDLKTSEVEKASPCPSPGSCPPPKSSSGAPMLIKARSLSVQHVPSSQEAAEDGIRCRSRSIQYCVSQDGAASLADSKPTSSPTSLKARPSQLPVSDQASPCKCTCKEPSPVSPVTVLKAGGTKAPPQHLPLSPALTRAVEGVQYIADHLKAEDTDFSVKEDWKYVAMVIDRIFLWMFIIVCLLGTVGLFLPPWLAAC
Chain of Neuronal acetylcholine receptor; alpha4/beta2 (P12390 whole entry): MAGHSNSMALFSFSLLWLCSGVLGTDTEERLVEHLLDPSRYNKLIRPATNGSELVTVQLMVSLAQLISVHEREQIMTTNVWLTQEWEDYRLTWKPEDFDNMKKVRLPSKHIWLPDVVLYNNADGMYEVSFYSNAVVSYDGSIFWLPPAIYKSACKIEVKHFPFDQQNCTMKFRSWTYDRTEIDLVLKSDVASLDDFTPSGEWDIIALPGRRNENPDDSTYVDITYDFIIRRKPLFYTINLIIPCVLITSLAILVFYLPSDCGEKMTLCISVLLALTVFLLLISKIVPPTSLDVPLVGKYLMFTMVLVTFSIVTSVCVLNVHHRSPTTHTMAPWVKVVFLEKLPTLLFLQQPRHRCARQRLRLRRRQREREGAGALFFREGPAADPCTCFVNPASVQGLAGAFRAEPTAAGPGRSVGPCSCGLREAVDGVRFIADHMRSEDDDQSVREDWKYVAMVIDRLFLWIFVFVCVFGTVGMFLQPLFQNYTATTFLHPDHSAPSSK

SMILES	Ki ([1]; read-out: Ki)	EC50 ([2]; IMR-32, read-out: EC50)	Emax [3]	other results
c1cncc(N2C[C@H]3CNC[C@H]3C2)c1	0.13 nM			
c1cncc(N2C[C@H]3CCN[C@H]3C2)c1	0.34 nM			
c1cncc(N2C[C@@H]3CCN[C@@H]3C2)c1	2.9 nM			
c1cnc(N2C[C@H]3CNC[C@H]3C2)cn1	7.8 nM			
Cc1ccccc1CNC(=O)c1cncc(N2C[C@@H]3CCN[C@@H]3C2)n1	> 10000 nM			Ki ([1]; read-out: pKi (converted)): > 10000 nM
CC(C)c1cccc(NC(=O)c2cncc(N3C[C@H]4CNC[C@H]4C3)n2)c1	35 nM			
CC(C)Oc1cccc(NC(=O)c2cncc(N3C[C@H]4CNC[C@H]4C3)n2)c1	26 nM	> 100000 nM	7%	
C[C@H](NC(=O)c1cncc(N2C[C@H]3CNC[C@H]3C2)c1)c1ccccc1	39 nM	> 100000 nM	5%	
C[C@@H](NC(=O)c1cncc(N2C[C@H]3CNC[C@H]3C2)c1)c1ccccc1	2.2 nM	> 100000 nM	6%	concentration at 0.75 h [4]: 20.6 ng/mL; concentration at 0.75 h [5]: 139 ng/mL; Kp at 0.75 h [6]: 0.15
CN(Cc1ccccc1)C(=O)c1cncc(N2C[C@H]3CNC[C@H]3C2)c1	3.9 nM	> 100000 nM	14%	concentration at 0.75 h [4]: 6 ng/mL; concentration at 0.75 h [5]: 89.8 ng/mL; Kp at 0.75 h [6]: 0.07
O=C(NCc1ccccc1C(F)(F)F)c1cncc(N2C[C@H]3CNC[C@H]3C2)c1	0.9 nM	> 100000 nM	4%	concentration at 0.75 h [4]: 6.9 ng/mL; concentration at 0.75 h [5]: 164 ng/mL; Kp at 0.75 h [6]: 0.04
O=C(c1cncc(N2C[C@H]3CNC[C@H]3C2)c1)N1CCc2ccccc2C1	0.3 nM	> 100000 nM	7%	
O=C(NC1CCc2ccccc21)c1cncc(N2C[C@H]3CNC[C@H]3C2)c1 (stereo not given in full)	17 nM	> 100000 nM	10%	
O=C(Nc1cccc(I)c1)c1cncc(N2C[C@H]3CNC[C@H]3C2)c1	0.02 nM	> 100000 nM	6%	Ki ([1]; read-out: pKi (converted)): 0.0245 nM
CC(C)Oc1cccc(NC(=O)c2cncc(N3C[C@H]4CNC[C@H]4C3)c2)c1	1.1 nM	> 100000 nM	10%	
O=C(Nc1ccc(Cl)cc1)c1cncc(N2C[C@H]3CNC[C@H]3C2)c1	0.2 nM	> 100000 nM	8%	
Cc1cccc(NC(=O)c2cncc(N3C[C@H]4CNC[C@H]4C3)c2)c1	0.1 nM	> 100000 nM	6%	concentration at 0.75 h [4]: 6.4 ng/mL; concentration at 0.75 h [5]: 52.1 ng/mL; Kp at 0.75 h [6]: 0.12
Cc1cc(C)cc(NC(=O)c2cncc(N3C[C@H]4CNC[C@H]4C3)c2)c1	0.3 nM	> 100000 nM	6%	Ki ([1]; read-out: pKi (converted)): 0.339 nM
c1ccc(COc2cncc(N3C[C@H]4CNC[C@H]4C3)n2)cc1				concentration at 0.75 h [4]: 76.8 ng/mL; concentration at 0.75 h [5]: 23.5 ng/mL; Kp at 0.75 h [6]: 3.27

Second part, led by results:

Ki ([1]; read-out: Ki)	EC50 ([2]; IMR-32, read-out: EC50)	SMILES	Emax [3]	other results
1.7 nM	> 100000 nM	Cc1ccccc1CNC(=O)c1cncc(N2C[C@H]3CNC[C@H]3C2)n1	17%	concentration at 0.75 h [4]: 8 ng/mL; concentration at 0.75 h [5]: 178 ng/mL; Kp at 0.75 h [6]: 0.04; half-life [7]: 1.7 h; half-life [8]: 2.4 h; half-life [9]: 2.1 h; bioavailability [10]: 77%; bioavailability [11]: 35%
5600 nM		Cc1ccccc1CNC(=O)c1cncc(N2CC[C@@H]3CNC[C@@H]32)n1		
7.6 nM	> 100000 nM	Cc1cccc(NC(=O)c2cncc(N3C[C@H]4CNC[C@H]4C3)n2)c1	10%	
2630 nM		Cc1cccc(NC(=O)c2cncc(N3C[C@@H]4CCN[C@@H]4C3)n2)c1		
2.7 nM	> 100000 nM	Cc1ccccc1CNC(=O)c1cncc(N2C[C@H]3CNC[C@H]3C2)c1	8%	concentration at 0.75 h [4]: 3.3 ng/mL; concentration at 0.75 h [5]: 142 ng/mL; Kp at 0.75 h [6]: 0.02
871 nM		Cc1ccccc1CNC(=O)c1cncc(N2CC[C@H]3CNC[C@H]32)c1		
3.9 nM	> 100000 nM	O=C(NCc1ccccc1)c1cncc(N2C[C@H]3CNC[C@H]3C2)n1	10%	concentration at 0.75 h [4]: 3 ng/mL; concentration at 0.75 h [5]: 81.3 ng/mL; Kp at 0.75 h [6]: 0.04
69 nM	> 100000 nM	O=C(NCCc1ccccc1)c1cncc(N2C[C@H]3CNC[C@H]3C2)n1	13%	
174 nM		CN(Cc1ccccc1)C(=O)c1cncc(N2C[C@H]3CNC[C@H]3C2)n1		
132 nM		CC(NC(=O)c1cncc(N2C[C@H]3CNC[C@H]3C2)n1)c1ccccc1 (stereo not given in full)		
2.5 nM	> 100000 nM	O=C(NCc1ccc(Cl)c(Cl)c1)c1cncc(N2C[C@H]3CNC[C@H]3C2)n1	12%	
0.7 nM	> 100000 nM	O=C(Nc1cccc(Cl)c1)c1cncc(N2C[C@H]3CNC[C@H]3C2)n1	26%	
3.3 nM	> 100000 nM	O=C(Nc1cccc(I)c1)c1cncc(N2C[C@H]3CNC[C@H]3C2)n1	7%	
51 nM		Cc1cc(C)cc(NC(=O)c2cncc(N3C[C@H]4CNC[C@H]4C3)n2)c1		
14 nM	> 100000 nM	O=C(Nc1cc(F)cc(F)c1)c1cncc(N2C[C@H]3CNC[C@H]3C2)n1	8%	
0.8 nM	15800 nM	O=C(NCCc1ccccc1F)c1cncc(N2C[C@H]3CNC[C@H]3C2)c1	6%	EC50 ([2]; IMR-32, read-out: pEC50 (converted)): 15800 nM
0.3 nM	> 100000 nM	COc1cc(NC(=O)c2cncc(N3C[C@H]4CNC[C@H]4C3)c2)cc(OC)c1	10%	concentration at 0.75 h [4]: 5.5 ng/mL; concentration at 0.75 h [5]: 74.5 ng/mL; Kp at 0.75 h [6]: 0.07
0.04 nM	> 100000 nM	O=C(Nc1cc(F)cc(F)c1)c1cncc(N2C[C@H]3CNC[C@H]3C2)c1	18%	
